Our source for the inhibition values is PubChem BioAssay AID493105 (The Scripps Research Institute Molecular Screening Center, 2011).

Holding throughout (test): LYPLA1 and LYPLA2 inhibitors, biochemical, gel-based ABPP, fluorescence, recombinant and endogenous enzyme (AID 493105)
Experiment [1] has as its system rhLYPLA2. Conditions: fluorescent probe labeling, membrane fraction, at 20 µM, stronger effect = higher value.
Experiment [2] has as its system emLYPLA1. Conditions: fluorescent probe labeling, membrane fraction, at 20 µM, stronger effect = higher value.
The test system of experiment [3] is emLYPLA2. The following applies: fluorescent probe labeling, membrane fraction, at 20 µM, stronger effect = higher value.
Experiment [4] relates to rhLYPLA1. Conditions: fluorescent probe labeling, soluble fraction, at 20 µM, stronger effect = higher value.

The source made the active and inactive calls. No rule for the calls is given here.

By inhibition is commonly meant how much of the control response was suppressed. Turning to `O=C(COc1ccc(Cl)cc1)N1CCN(c2ccc([N+](=O)[O-])c(N3CCOCC3)c2)CC1`, the inhibition in experiment [1] was 3% (inactive); in experiment [2] it was 0% (inactive); in experiment [3], 0% (inactive); in experiment [4], 47%.
On to `O=C(N1CCOCC1)n1nnc2ccccc21`, for which the inhibition in experiment [1] was 76%; in experiment [2], 99%; in experiment [3], 88%; in experiment [4] it was 98%.
In the case of `COc1ccc(-n2nc(C(=O)NCC(=O)N3CCN(Cc4ccccc4)CC3)c3ccccc3c2=O)cc1OC`, the inhibition in experiment [1] is 7% (inactive); in experiment [2] it was 23% (inactive); in experiment [3], 15% (inactive); in experiment [4], 16% (inactive).
Regarding `Cc1ccc(C)c(C(=O)CCC(=O)N2CCN(c3cccc(C(F)(F)F)c3)CC2)c1`, the inhibition in experiment [1] is 0% (inactive); in experiment [2] it was 4% (inactive); in experiment [3], 4% (inactive); in experiment [4], 31%.
Consider `COc1ccc(C(=O)NC(=S)Nc2ccc(N3CCOCC3)cc2)cc1Cl`, for which the inhibition is 1% (inactive) in experiment [1], 0% (inactive) in experiment [2], 8% (inactive) in experiment [3] and 0% (inactive) in experiment [4].
For the compound `COc1ccc(N2CCN(C(=O)CNC(=O)c3cn(-c4ccccc4OC)c(=O)c4ccccc34)CC2)cc1`, the inhibition was 26% (inactive) in experiment [1], 15% (inactive) in experiment [2], 34% in experiment [3] and 0% (inactive) in experiment [4].
In the case of `Cc1[nH]c2ccccc2c1C(=O)CN1CCN(C/C=C/c2ccccc2)CC1`, the inhibition in experiment [1], in experiment [2], in experiment [3] and in experiment [4] was 0% (inactive) in each case.
As to `Cc1ccc([N+](=O)[O-])c(OCCCN2CCC(Cc3ccccc3)CC2)c1`, the inhibition in experiment [1] was 0% (inactive); in experiment [2], 0% (inactive); in experiment [3], 2% (inactive); in experiment [4] it was 7% (inactive).
In the case of `O=C(CCCCCCN1C(=O)c2ccccc2C1=O)N1CCC(c2ccccc2)C1` (stereo not given), the inhibition in experiment [1] is 2% (inactive); in experiment [2], 0% (inactive); in experiment [3], 17% (inactive); in experiment [4], 17% (inactive).
With `CCC(=C/c1sc2ccc3ccccc3c2[n+]1C)/C=C1\Sc2ccc3ccccc3c2N1C`, the inhibition is 2% (inactive) in experiment [1], 1% (inactive) in experiment [2], 7% (inactive) in experiment [3] and 0% (inactive) in experiment [4].
On to `COc1ccccc1-n1cc(C(=O)NCC(=O)N2CCN(Cc3ccccc3)CC2)c2ccccc2c1=O`, for which the inhibition in experiment [1] is 39%; in experiment [2], 1% (inactive); in experiment [3], 52%; in experiment [4], 0% (inactive).
On to `COc1ccc(C(CNC(=O)COc2ccc(-c3ccccc3)cc2)N2CCOCC2)cc1` (stereo not given), for which the inhibition in experiment [1] was 0% (inactive); in experiment [2], 0% (inactive); in experiment [3], 1% (inactive); in experiment [4], 5% (inactive).
For the compound `O=C(C1CCC(Cn2c(=S)[nH]c3ccccc3c2=O)CC1)N1CCN(c2ccccc2)CC1` (stereo not given), the inhibition in experiment [1] was 13% (inactive); in experiment [2] it was 0% (inactive); in experiment [3], 8% (inactive); in experiment [4] it was 0% (inactive).
On to `N#Cc1c(NC(=O)CN2CCN(C(=O)c3ccco3)CC2)sc2c1CCCCC2`, for which the inhibition in experiment [1] was 0% (inactive); in experiment [2], 0% (inactive); in experiment [3], 6% (inactive); in experiment [4] it was 20% (inactive).
As to `COc1ccc(C(=O)NC(=S)Nc2ccc(N3CCN(C(C)=O)CC3)cc2)cc1[N+](=O)[O-]`, the inhibition in experiment [1] is 15% (inactive); in experiment [2], 10% (inactive); in experiment [3], 31%; in experiment [4] it was 44%.
For the compound `O=C(CN1CCN(c2ccccn2)CC1)Nc1cc(C(F)(F)F)ccc1Cl`, the inhibition in experiment [1] is 6% (inactive); in experiment [2], 0% (inactive); in experiment [3], 9% (inactive); in experiment [4] it was 36%.
Turning to `O=C(NCCNC(=O)c1cc(OCC(F)(F)F)ccc1OCC(F)(F)F)Nc1cccc(C(F)(F)F)c1`, the inhibition in experiment [1] is 0% (inactive); in experiment [2], 12% (inactive); in experiment [3] it was 7% (inactive); in experiment [4], 57%.
`CC1CN(Cc2cc(=O)oc3cc(O)c(Cl)cc23)CC(C)O1` (stereo not given): the inhibition in experiment [1] is 3% (inactive); in experiment [2] it was 0% (inactive); in experiment [3], 0% (inactive); in experiment [4], 0% (inactive).
For `O=C(CN1CCN(C(=O)c2ccccc2)CC1)Nc1cc(S(=O)(=O)N2CCCC2)ccc1Cl`, the inhibition is 3% (inactive) in experiment [1], 21% (inactive) in experiment [2], 14% (inactive) in experiment [3] and 55% in experiment [4].
On to `COc1ccc(-n2nc(C(=O)NCC(=O)N3CCN(Cc4ccccc4)CC3)c3ccccc3c2=O)c(OC)c1`, for which the inhibition in experiment [1] is 30%; in experiment [2], 0% (inactive); in experiment [3] it was 46%; in experiment [4], 31%.
As to `COc1ccc(OC)c(NC(=O)C2CCC(CNc3c(N4CCC(C)CC4)c(=O)c3=O)CC2)c1` (stereo not given), the inhibition in experiment [1] was 7% (inactive); in experiment [2], 2% (inactive); in experiment [3] it was 3% (inactive); in experiment [4], 27% (inactive).
As to `O=C(CN1CCN(C(=O)c2ccco2)CC1)Nc1cc(Cl)ccc1Cl`, the inhibition in experiment [1] was 0% (inactive); in experiment [2], 37%; in experiment [3], 0% (inactive); in experiment [4] it was 60%.
`Cc1ccc(CN2CCN(/N=C/C=C/c3ccccc3[N+](=O)[O-])CC2)cc1`: the inhibition in experiment [1] is 10% (inactive); in experiment [2], 0% (inactive); in experiment [3], 26% (inactive); in experiment [4] it was 27% (inactive).
As to `O=C(CCCc1ccccc1)N1CCN(c2ccc([N+](=O)[O-])cc2)CC1`, the inhibition was 0% (inactive) in experiment [1], 0% (inactive) in experiment [2], 3% (inactive) in experiment [3] and 0% (inactive) in experiment [4].
Consider `O=C(O)c1ccc2c(c1)C(=O)N(CCCCCCCN1C(=O)c3ccc(C(=O)O)cc3C1=O)C2=O`, for which the inhibition in experiment [1] was 0% (inactive); in experiment [2] it was 23% (inactive); in experiment [3] it was 3% (inactive); in experiment [4], 65%.
